In patent US10919878B2, “MCT4 inhibitors and uses thereof” (CHARLES R. DREW UNIVERSITY OF MEDICINE AND SCIENCE, priority 2018, dated 2021):

Assays:
MDA-MB-231 cells = experiment: Viability/cytotoxicity assay (growth inhibition); type: cell-based; details: Homo sapiens, read-out: IC50, inhibition of cell proliferation
Procedure: Human cell lines MDA-MB-231 cells were obtained from ATCC (Rockville, Md.). These cells were authenticated by Laragen, Inc. (Culver City, Calif.), by short tandem repeat (STR) profiling, monitoring cell morphology and biological behavior, and tested to exclude mycoplasma contamination prior to use.
A viability/cytotoxicity assay was performed by culturing cells in 96-well plates. The following day the cells were treated with ½ serial dilutions of each compound or the solvent (DMSO) alone as a control. The amount of solvent was the same in all the conditions and each condition was tested in duplicate or triplicate. After 5 days incubation, the effect of the compounds on cell proliferation were determined by either MTT (3-(4,5-dimethylthiazol-2-yl)-2,5-diphenyltetrazolium bromide, Sigma-Aldrich, St. Louis, Mo.) or bioluminescence assay (Cell Titer Glo, Promega, Madison, Wis.). After incubation of the cells with MTT (1 mg/ml), the developed color was dissolved in DMSO and read by a plate reader. The bioluminescence assays were performed according to the manufacturer's recommendation. Growth inhibition rates were determined by comparing the read out for each compound dilution versus the control and from the growth inhibition curves from which the IC50 values were calculated. Each assay was performed at least twice.

MDA-MB-231 tumors = experiment: MDA-MB-231 TNBC xenograft tumor model in nude mice; type: in vivo; details: 20 mg/kg intraperitoneally, up to 4 weeks; for tumor growth (size and weight): daily 5 days then 2 days rest
Procedure: Values represent mean±SD, n=6-8 mice/group.
Values represent mean±SD, n=8 mice/group.
The anti-tumor effects of the MCT4 inhibitors CB-1, CB-2 and/or CB-3 were evaluated in nude mice implanted with human triple negative breast cancer (TNBC) cells (MDA-MB-231). For TNBC xenograft tumor models, MDA-MB-231 (5×10^6) cancer cells were injected subcutaneously into the flanks of female athymic nude mice (nu/nu, 4 weeks old). Two weeks after the injection of cancer cells, xenograft tumors were found in the injection site. Tumor dimensions were measured, and volume was calculated by length (L), width (W), and height (H) using the formula (volume=π/6×L×W×H). After the tumors reached a volume of 50 mm^3, the mice were injected intraperitoneally with 20 mg/kg CB-1, CB-2, CB-3 or with the vehicle solution (DMSO; i.e., Control) for up to 4 weeks. The MCT4 inhibitors were injected daily for 5 days and then mice were rested for 2 days.

MCT4 = target: T1, MCT4 (Homo sapiens, UniProt O15427); experiment: Lactate secretion assay (LACTATE-GLO Assay); type: cell-based; details: MDA-MB-231 cells, compounds 2.5 μM, 48 h
T1 construct: host or cells: MDA-MB-231
T1 sequence (O15427 1-465): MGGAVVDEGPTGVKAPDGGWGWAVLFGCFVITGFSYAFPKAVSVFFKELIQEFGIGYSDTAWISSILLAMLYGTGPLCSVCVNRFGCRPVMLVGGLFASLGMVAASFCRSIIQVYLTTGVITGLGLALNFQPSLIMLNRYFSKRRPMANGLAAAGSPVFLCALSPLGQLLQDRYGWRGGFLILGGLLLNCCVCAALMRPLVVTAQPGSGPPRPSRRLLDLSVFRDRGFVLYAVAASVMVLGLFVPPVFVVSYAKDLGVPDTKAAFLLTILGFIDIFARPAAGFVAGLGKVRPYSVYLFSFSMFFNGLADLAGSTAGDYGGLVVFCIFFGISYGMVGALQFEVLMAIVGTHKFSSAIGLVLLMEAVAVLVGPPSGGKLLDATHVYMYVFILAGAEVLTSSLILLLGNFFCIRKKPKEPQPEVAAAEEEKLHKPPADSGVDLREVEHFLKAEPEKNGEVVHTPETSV
Procedure: Briefly, MDA-MB-231 cells were incubated with the various compounds (2.5 μM) for 48 h followed by a lactate secretion assay. […] Small compound names are shown on the x-axis. Diclofenac was used as a positive control.
MDA-MB-231 cells were incubated with various candidate compounds (2.5 μM) for 48 hours followed by lactate secretion assay with a LACTATE-GLO™ Assay kit (Promega Corporation, Madison, Wis.) according to the manufacturer's protocol.

SMILES | IC50 (MDA-MB-231 cells) [µM] | tumor growth (size and weight) (MDA-MB-231 tumors) | body weight of the mice (MDA-MB-231 tumors) | lactate secretion inhibition (MCT4) | signs of systemic toxicity (MDA-MB-231 tumors)
O=C(Nc1cc(Cl)ccc1Oc1ccc2ccccc2c1Br)c1cc(Cl)cc(I)c1O [CB-1, N-{2-[(1-bromo-2-naphthyl)oxy]-5-chlorophenyl}-5-chloro-2-hydroxy-3-iodobenzamide] | 35.3 | significantly inhibited tumor growth | began to lose weight |  | 
O=C(Nc1ccc(Nc2cc(-n3ccnc3)ncn2)cc1)Nc1cc(F)cc(F)c1 [CB-3, N-(3,5-difluorophenyl)-N′-(4-{[6-(1H-imidazol-1-yl)-4-pyrimidinyl]amino}phenyl)urea] |  | strikingly reduced the size and weight | without affecting body weight | most effective | no detectable signs of systemic toxicity
